Experimental findings from PMC8623168, “Evaluation of Amyloid Polypeptide Aggregation Inhibition and Disaggregation Activity of A-Type Procyanidins” (Pharmaceuticals, 2021) are described below.

Holding throughout (format): biochemical
Assay [1] concerns the target T1, Aβ42 (amyloid-β; Aβ) (Homo sapiens, UniProt P05067).
T1 construct: gene APP; Abeta42 peptide of 42 residues (672-713 of APP, recalled); cut from amyloid precursor protein; aggregating peptide, monomer to fibril
The assay can be described thus: thioflavin-T fluorescence, aggregation inhibition. The conditions noted are these: read-out: IC50 (Aβ/hIAPP, μM) ^a. The source says:
thioflavin-T fluorescence, aggregation inhibition on Aβ42 (amyloid-β; Aβ)

For assay [2], the target named is T2, hIAPP (human islet amyloid polypeptide) (Homo sapiens, UniProt P10997).
T2 construct: gene IAPP; mature peptide of 37 residues (34-70 of the precursor, recalled), bought from KareBay Biochem; aggregating peptide, monomer to fibril
T2 sequence (P10997 34-70): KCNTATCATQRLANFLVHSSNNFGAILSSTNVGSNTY
The assay can be described thus: thioflavin-T fluorescence, aggregation inhibition. As to conditions: read-out: IC50 (Aβ/hIAPP, μM) ^a. An excerpt:
thioflavin-T fluorescence, aggregation inhibition on hIAPP (human islet amyloid polypeptide)

In assay [3] the target is T2, hIAPP (human islet amyloid polypeptide). The assay can be described thus: thioflavin-T fluorescence, disaggregation of preformed aggregates. As to conditions: read-out: EC50 (Aβ/hIAPP, μM) ^a. An excerpt: thioflavin-T fluorescence, disaggregation of preformed aggregates on hIAPP (human islet amyloid polypeptide)
For assay [4], the target named is T1, Aβ42 (amyloid-β; Aβ). The description is as above. As to conditions: read-out: EC50 (Aβ/hIAPP, μM) ^a. An excerpt:
thioflavin-T fluorescence, disaggregation of preformed aggregates on Aβ42 (amyloid-β; Aβ)

T1 sequence (P05067 672-713): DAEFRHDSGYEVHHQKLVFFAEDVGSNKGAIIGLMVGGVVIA

Regarding `O=C(O[C@@H]1Cc2c(O)cc(O)cc2O[C@@H]1c1cc(O)c(O)c(O)c1)c1cc(O)c(O)c(O)c1` [EGCG, reference compound], the results for the IC50 (at Aβ42 (amyloid-β; Aβ) [1]; in assay [2]) were 3.8 µM and 1.1 µM, respectively. The EC50 in assay [3] came to 3.7 µM; on Aβ42 (amyloid-β; Aβ) [4] it was 5 µM.

For `Oc1cc(O)c2c(c1)O[C@@]1(c3ccc(O)c(O)c3)Oc3cc(O)c4c(c3[C@@H]2[C@H]1O)O[C@H](c1ccc(O)c(O)c1)[C@H](O)C4` [compound 1, procyanidin A2], the figures for the IC50 (on Aβ42 (amyloid-β; Aβ) [1]; in assay [2]) were 4.8 µM and 8.4 µM, respectively. The values for the EC50 (in assay [3]; on Aβ42 (amyloid-β; Aβ) [4]) were 5.4 µM and 3.3 µM, respectively.

As for `Oc1cc(O)c2c(c1)O[C@@]1(c3ccc(O)c(O)c3)Oc3cc4c(c(O)c3[C@@H]2[C@H]1O)C[C@@H](O)[C@@H](c1ccc(O)c(O)c1)O4` [compound 3, proanthocyanidin A6], the IC50 on Aβ42 (amyloid-β; Aβ) [1] stood at 4.2 µM; in assay [2] it was 16.4 µM. Besides, the EC50 in assay [3] turned out to be 4.9 µM; on Aβ42 (amyloid-β; Aβ) [4], 23 µM.

With `Oc1cc(O)c2c(c1)O[C@@]1(c3ccc(O)c(O)c3)Oc3cc4c(c(O)c3[C@@H]2[C@H]1O)C[C@H](O)[C@@H](c1ccc(O)c(O)c1)O4` [compound 4, 4], the IC50 at Aβ42 (amyloid-β; Aβ) [1] amounted to 5.7 µM; in assay [2] it was 16.8 µM.

In the case of `Oc1cc(O)c2c(c1)O[C@@]1(c3ccc(O)c(O)c3)Oc3c4c(cc(O)c3[C@@H]2[C@H]1O)O[C@H](c1ccc(O)c(O)c1)[C@H](O)C4` [compound 5, proanthocyanidin A7], the IC50 on Aβ42 (amyloid-β; Aβ) [1] came out at 2.4 µM; in assay [2] it was 13.4 µM. Further, the values for the EC50 (in assay [3]; on Aβ42 (amyloid-β; Aβ) [4]) were 15.8 µM and 8.9 µM, respectively.

As for `Oc1cc(O)c2c(c1)O[C@@]1(c3ccc(O)c(O)c3)Oc3c4c(cc(O)c3[C@@H]2[C@H]1O)O[C@H](c1ccc(O)c(O)c1)[C@@H](O)C4` [compound 6, 6], the IC50 on Aβ42 (amyloid-β; Aβ) [1] came out at 6.8 µM; in assay [2] it was 11.6 µM.

In the case of `COc1cc(OC)c2c(c1)O[C@@]1(c3ccc(OC)c(OC)c3)Oc3cc(OC)c4c(c3[C@@H]2[C@H]1O)O[C@H](c1ccc(OC)c(OC)c1)[C@H](O)C4` [compound 7, 7], the IC50 (at Aβ42 (amyloid-β; Aβ) [1]; in assay [2]) was above 100 µM in each case. Further, the EC50 (in assay [3]; on Aβ42 (amyloid-β; Aβ) [4]) was above 100 µM throughout.

As for `Oc1cc(O)c2c(c1)O[C@H](c1ccc(O)c(O)c1)[C@H](O)C2` [compound 8, (−)-epicatechin], the IC50 at Aβ42 (amyloid-β; Aβ) [1] came out at 41.7 µM; in assay [2], 38.9 µM. The figures for the EC50 (in assay [3]; on Aβ42 (amyloid-β; Aβ) [4]) were 12.2 µM and 12.9 µM, respectively.

Consider `Oc1cc(O)c2c(c1)O[C@H](c1ccc(O)c(O)c1)[C@@H](O)C2` [compound 9, (+)-catechin], for which the IC50 at Aβ42 (amyloid-β; Aβ) [1] was 56.8 µM; in assay [2], 40.9 µM.
